Four molecules from ChEMBL document CHEMBL5465560, “Selectivity Literature for EUbOPEN Chemogenomic Library” (2024) can be followed below.

The structures appear in SMILES notation.

Test [1] deals with T1, Phosphatidylinositol 4,5-bisphosphate 3-kinase catalytic subunit delta isoform (Homo sapiens) (UniProt O00329).
T1 sequence (whole entry): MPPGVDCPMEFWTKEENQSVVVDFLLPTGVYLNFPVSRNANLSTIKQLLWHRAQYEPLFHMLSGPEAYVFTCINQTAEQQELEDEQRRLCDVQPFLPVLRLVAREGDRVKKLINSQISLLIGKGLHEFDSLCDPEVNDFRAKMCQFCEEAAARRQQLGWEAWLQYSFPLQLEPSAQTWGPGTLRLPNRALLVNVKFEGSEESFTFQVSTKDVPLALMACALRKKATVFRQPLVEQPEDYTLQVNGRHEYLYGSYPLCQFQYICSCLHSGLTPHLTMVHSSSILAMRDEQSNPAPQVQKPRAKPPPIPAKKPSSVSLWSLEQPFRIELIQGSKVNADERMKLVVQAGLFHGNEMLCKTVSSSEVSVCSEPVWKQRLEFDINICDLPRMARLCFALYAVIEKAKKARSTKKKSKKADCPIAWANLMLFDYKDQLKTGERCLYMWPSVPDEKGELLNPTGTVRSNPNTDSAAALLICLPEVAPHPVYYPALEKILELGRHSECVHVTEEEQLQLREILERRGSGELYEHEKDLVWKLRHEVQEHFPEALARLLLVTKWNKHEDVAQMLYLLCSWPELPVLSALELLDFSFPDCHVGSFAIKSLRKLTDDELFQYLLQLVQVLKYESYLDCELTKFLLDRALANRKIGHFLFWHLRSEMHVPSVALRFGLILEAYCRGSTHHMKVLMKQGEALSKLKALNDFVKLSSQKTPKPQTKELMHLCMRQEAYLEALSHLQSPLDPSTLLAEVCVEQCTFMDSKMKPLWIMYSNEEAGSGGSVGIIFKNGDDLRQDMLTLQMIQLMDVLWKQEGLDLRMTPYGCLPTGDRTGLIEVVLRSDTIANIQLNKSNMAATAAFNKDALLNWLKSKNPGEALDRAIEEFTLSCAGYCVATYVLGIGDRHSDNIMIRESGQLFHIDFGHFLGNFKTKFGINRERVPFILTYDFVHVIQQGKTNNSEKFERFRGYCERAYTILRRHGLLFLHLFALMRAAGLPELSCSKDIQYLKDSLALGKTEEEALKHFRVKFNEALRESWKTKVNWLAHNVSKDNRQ
Put plainly: Selectivity interaction (KinomeScan (DiscoverX)) EUB0000595a PIK3CD. To be noted: at 10 µM.

For test [2], the target named is Serine/threonine-protein kinase pim-2 (Homo sapiens, UniProt Q9P1W9). Put plainly: Selectivity interaction (KinomeScan (DiscoverX)) EUB0000695a PIM2. The settings on record: at 100 nM.
Test [3] addresses T2, Interleukin-1 receptor-associated kinase 3 (Homo sapiens) (UniProt Q9Y616).
T2 sequence (whole entry): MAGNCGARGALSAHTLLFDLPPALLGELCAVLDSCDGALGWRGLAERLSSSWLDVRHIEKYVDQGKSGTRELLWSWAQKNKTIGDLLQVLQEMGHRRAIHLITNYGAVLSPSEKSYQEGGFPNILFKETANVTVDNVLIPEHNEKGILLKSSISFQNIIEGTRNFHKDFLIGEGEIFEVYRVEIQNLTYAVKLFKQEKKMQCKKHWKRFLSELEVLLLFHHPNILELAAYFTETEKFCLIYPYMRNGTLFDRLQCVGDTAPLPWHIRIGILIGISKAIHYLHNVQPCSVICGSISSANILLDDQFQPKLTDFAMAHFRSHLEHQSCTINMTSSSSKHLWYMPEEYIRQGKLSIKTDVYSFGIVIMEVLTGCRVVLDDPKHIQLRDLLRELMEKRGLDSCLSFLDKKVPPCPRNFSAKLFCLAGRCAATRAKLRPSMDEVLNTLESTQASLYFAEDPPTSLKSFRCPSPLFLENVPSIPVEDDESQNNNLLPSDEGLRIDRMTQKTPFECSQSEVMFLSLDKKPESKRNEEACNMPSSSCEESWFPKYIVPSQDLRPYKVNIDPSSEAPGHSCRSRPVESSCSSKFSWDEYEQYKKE
As to the kind of experiment: Selectivity interaction (ActivX KiNativ screen (kinase selectivity in THP-1 cell lysates)) EUB0000639a IRAK3. Format: subcellular. To be noted: lysate, at 0.2 µM.

Test [4] deals with T3, Serine/threonine-protein kinase TAO2 (Homo sapiens) (UniProt Q9UL54).
T3 sequence (whole entry): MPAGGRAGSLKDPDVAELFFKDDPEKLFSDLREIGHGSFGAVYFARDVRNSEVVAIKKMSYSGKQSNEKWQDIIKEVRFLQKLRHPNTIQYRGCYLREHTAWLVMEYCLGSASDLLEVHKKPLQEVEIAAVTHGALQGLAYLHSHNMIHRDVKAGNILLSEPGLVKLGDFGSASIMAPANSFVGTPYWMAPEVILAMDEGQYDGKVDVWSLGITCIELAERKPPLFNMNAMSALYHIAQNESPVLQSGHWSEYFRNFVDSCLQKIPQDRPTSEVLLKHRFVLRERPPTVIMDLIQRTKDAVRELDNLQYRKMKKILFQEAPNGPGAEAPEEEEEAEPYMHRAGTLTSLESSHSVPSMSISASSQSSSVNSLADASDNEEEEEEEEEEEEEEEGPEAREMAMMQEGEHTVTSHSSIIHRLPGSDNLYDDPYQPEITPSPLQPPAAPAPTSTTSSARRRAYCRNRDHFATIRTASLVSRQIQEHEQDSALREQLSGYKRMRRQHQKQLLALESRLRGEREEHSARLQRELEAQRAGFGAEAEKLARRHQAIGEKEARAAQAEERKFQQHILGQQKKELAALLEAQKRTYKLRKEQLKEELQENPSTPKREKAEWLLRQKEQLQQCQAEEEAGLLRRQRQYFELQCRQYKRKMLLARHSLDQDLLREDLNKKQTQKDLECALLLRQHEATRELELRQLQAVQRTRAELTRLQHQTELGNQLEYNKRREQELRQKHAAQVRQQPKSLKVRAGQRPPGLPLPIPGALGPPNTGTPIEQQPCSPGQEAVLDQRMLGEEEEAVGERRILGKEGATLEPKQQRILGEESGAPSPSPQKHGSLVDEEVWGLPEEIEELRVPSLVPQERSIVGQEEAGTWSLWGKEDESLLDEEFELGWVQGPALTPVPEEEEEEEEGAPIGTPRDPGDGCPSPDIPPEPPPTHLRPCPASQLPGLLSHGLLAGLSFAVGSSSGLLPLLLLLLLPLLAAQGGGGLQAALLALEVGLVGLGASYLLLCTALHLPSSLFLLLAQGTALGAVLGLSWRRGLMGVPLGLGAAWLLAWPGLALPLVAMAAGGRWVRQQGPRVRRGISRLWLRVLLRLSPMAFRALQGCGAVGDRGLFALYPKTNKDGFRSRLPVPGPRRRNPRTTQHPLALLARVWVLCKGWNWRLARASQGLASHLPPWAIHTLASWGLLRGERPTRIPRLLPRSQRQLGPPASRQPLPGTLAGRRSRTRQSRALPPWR
Put plainly: Selectivity interaction (KinomeScan (DiscoverX)) EUB0001049a TAOK2. The settings on record: at 1 µM.

Serine/threonine-protein kinase pim-2, sequence (Q9P1W9 whole entry, looked up): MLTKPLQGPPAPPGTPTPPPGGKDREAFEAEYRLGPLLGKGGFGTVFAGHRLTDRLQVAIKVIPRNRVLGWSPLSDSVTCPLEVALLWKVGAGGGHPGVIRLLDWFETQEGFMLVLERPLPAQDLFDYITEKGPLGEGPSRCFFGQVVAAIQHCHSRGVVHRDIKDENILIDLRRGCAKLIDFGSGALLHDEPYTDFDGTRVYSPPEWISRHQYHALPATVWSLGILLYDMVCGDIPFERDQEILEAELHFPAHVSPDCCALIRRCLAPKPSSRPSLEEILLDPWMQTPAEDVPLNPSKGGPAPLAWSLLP

In test [1], `COCC(=O)NC/C=C/c1ccc2ncnc(Nc3ccc(Oc4ccc(C)nc4)c(C)c3)c2c1` [CP-724714] yielded a % of control of 100%.

In turn, `Cc1cc(F)c(C(=O)Nc2cccc(-c3nncn3C(C)C)n2)cc1-n1cnc(C2CC2)c1` gave a % of control in test [2] of 78%.

With `CC[C@@H]1[C@H](F)C(=O)N[C@@H]1COc1nccc2cc(C(N)=O)c(OC)cc12` [ZIMLOVISERTIB], the % of inhibition in test [3] was 34%.

Consider `COc1cc(Nc2nc(C)cc(-c3cnn4nc(OC)ccc34)n2)cc(C(F)(F)F)c1`, for which the % of control in test [4] was 77%.
